Earlier results in patent US10202620B2, “Synthesis of olefinic alcohols via enzymatic terminal hydroxylation” (PROVIVI, INC., priority 2014, dated 2019).

Experiments:
[1] = tested on: CYP52A3; details: terminal hydroxylation, by alkane/FA chain length
[2] = biological target: T1, CYP52A4 (Candida maltosa, UniProt P16141); details: terminal hydroxylation, by alkane/FA chain length
T1 sequence (P16141 1-538): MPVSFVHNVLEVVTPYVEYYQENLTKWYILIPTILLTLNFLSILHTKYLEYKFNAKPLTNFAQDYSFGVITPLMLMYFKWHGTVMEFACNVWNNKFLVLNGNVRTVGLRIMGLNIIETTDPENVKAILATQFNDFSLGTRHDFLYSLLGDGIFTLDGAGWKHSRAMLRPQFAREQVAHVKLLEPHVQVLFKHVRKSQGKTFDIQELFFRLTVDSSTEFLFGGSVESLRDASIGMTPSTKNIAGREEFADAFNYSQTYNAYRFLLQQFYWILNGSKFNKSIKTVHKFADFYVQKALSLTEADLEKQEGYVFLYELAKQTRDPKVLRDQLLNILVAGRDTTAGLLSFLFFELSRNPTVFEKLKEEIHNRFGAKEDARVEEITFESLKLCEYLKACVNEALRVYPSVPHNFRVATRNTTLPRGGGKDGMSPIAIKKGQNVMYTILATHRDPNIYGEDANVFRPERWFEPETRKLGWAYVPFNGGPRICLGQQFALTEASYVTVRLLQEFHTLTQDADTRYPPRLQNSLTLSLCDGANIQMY

[3] = tested on: CYP153A6
[4] = biological target: T2, AlkB P. putida GPo1 (Ectopseudomonas oleovorans, UniProt P12691); details: terminal hydroxylation, by alkane/FA chain length
T2 sequence (P12691 1-401): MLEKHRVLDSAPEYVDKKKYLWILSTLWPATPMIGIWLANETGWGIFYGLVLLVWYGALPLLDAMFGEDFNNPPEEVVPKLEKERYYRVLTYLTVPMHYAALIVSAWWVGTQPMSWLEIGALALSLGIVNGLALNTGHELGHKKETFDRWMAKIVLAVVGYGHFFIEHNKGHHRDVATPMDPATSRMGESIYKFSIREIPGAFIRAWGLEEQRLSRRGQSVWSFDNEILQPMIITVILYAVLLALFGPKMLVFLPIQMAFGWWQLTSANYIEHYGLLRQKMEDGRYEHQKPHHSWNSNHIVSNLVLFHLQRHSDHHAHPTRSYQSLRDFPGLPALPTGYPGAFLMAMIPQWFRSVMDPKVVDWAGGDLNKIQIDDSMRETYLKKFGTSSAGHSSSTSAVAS

[5] = tested on: CYP153A P. sp.; details: terminal hydroxylation, by alkane/FA chain length
[6] = tested on: alkB2 Gordonia sp TF6; details: terminal hydroxylation, by alkane/FA chain length; 100% relative activity obtained with hexane
[7] = tested on: CYP153A16; details: terminal hydroxylation, by alkane/FA chain length
[8] = biological target: T3, LadA (Geobacillus thermodenitrificans, UniProt A4IU28); details: terminal hydroxylation, by alkane/FA chain length
T3 sequence (A4IU28 1-440): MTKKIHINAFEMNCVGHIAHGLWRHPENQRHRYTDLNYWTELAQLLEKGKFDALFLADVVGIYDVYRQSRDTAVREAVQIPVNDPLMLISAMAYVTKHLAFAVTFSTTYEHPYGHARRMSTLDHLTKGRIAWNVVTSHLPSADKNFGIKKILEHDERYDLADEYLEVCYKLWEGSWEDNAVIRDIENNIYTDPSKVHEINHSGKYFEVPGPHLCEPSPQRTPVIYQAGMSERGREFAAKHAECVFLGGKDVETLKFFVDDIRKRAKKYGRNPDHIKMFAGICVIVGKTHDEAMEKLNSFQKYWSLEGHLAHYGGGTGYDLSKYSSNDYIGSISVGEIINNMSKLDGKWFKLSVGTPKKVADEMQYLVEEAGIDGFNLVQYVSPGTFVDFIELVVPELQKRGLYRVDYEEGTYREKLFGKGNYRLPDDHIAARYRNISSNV

[9] = tested on: CYP52A21

Row | Compound | Relative activity CYP52A3 (Scheller et al., 1996, Arch. Biochem Biophys. 328: 245-254) [1] | Relative activity CYP52A4 (Scheller et al., 1996, Arch. Biochem Biophys. 328: 245-254) [2] | Relative activity CYP153A6 (Funhoff et al., 2006, J. Bacteriol. 188: 5220-5227) [3] | Relative activity AlkB P. putida GPo1 (Vanbeilen et al., 1994, Enzyme Microb. Technol. 16: 904-911) [4] | Relative activity CYP153A P. sp. (Scheps et al., 2011, Org. Biomol. Chem. 9: 6727-6733) [5] | Relative activity alkB2 Gordonia sp TF6* (Fujii et al., 2004, Biosci. Biotechnol. Biochem. 68: 2171-2177) [6] [%] | Relative activity CYP153A16 (Scheps et al., 2011, Org. Biomol. Chem. 9: 6727-6733) [7] | Relative activity LadA (Feng et al., 2007, Proc. Natl. Acad. Sci. U.S.A. 104: 5602-5607) [8] | also measured
1 | CCCCCCCCCCCCCCCCCC(=O)O [C18 FA] | 30 | 1 |  |  |  |  |  |  | 
2 | CCCCCCCC [Strain C8] |  |  | 100 | 95 | 100 | 72 | 100 |  | 
3 | CCCCCCCCCCCCCCCCCCCCCC [Strain C22] |  |  |  |  |  |  |  | 74 | 
4 | CCCCCCCCC [Strain C9] |  |  | 82 | 100 | 69 | 63 | 29 |  | 
5 | CCCCCCCCCCCCCCCCCC [Strain C18] | 48 | 20 |  |  |  |  |  | 78 | 
6 | CCCCCCCCCC [Strain C10] |  |  | 23 | 60 | 60 | 66 | 13 |  | 
7 | CCCCCCCCCCCCCCCCCCCCCCCC [Strain C24] |  |  |  |  |  |  |  | 65 | 
8 | CCCCCCCCCCC [Strain C11] |  |  | 1 | 6 | <6 | 48 | <8 |  | 
9 | CCCCCCCCCCCCCCCC(=O)O [C16 FA] | 35 | 18 |  |  |  |  |  |  | Relative activity CYP52A21 (Kim et al., 2007, Arch. Biochem. Biophys. 464: 213-220) [9]: 29
10 | CCCCCCCCCCCC [Strain C12] | 41 | 37 |  |  |  | 34 |  |  | 
11 | CCCCCCCCCCCCCCC [Strain C15] |  |  |  |  |  |  |  | 83 | 
12 | CCCCCCCCCCCCCCCC [Strain C16] | 100 | 33 |  |  |  |  |  | 100 | 
